Laboratory results taken from ChEMBL document CHEMBL3991601, “The target landscape of clinical kinase drugs” (Science, 2017).
Where a name gives a salt, the structure may show the parent alone. The source made the active and inactive calls.

What was measured:
[1] = target: Eukaryotic peptide chain release factor GTP-binding subunit ERF3B (Homo sapiens, UniProt Q8IYD1)
[2] = target: ALK tyrosine kinase receptor (Homo sapiens, UniProt Q9UM73); assay type: subcellular, K-562, COLO 205, SK-N-BE(2) and MV-4-11, Cell lysate; settings: read-out: Kd apparent
[3] = target: Serine/threonine-protein kinase 38 (Homo sapiens, UniProt Q15208)
[4] = target: MAP kinase-activated protein kinase 3 (Homo sapiens, UniProt Q16644)
[5] = target: Tyrosine-protein kinase Fgr (Homo sapiens, UniProt P09769)
[6] = target: Tyrosine-protein kinase JAK2 (Homo sapiens, UniProt O60674)
[7] = target: Activin receptor type-1-like (Homo sapiens, UniProt P37023)
[8] = target: Cyclin-dependent kinase 10 (Homo sapiens, UniProt Q15131)
[9] = target: Dual specificity tyrosine-phosphorylation-regulated kinase 1B (Homo sapiens, UniProt Q9Y463)
[10] = target: Nucleoside diphosphate kinase B (Homo sapiens, UniProt P22392)
[11] = target: Cyclin-dependent kinase 18 (Homo sapiens, UniProt Q07002)
[12] = target: Cyclin-dependent kinase 9 (Homo sapiens, UniProt P50750)
[13] = target: Mast/stem cell growth factor receptor Kit (Homo sapiens, UniProt P10721)
Also: in the data inactive means no Kd found up to 30 µM.

Serine/threonine-protein kinase 38, sequence (Q15208 whole entry): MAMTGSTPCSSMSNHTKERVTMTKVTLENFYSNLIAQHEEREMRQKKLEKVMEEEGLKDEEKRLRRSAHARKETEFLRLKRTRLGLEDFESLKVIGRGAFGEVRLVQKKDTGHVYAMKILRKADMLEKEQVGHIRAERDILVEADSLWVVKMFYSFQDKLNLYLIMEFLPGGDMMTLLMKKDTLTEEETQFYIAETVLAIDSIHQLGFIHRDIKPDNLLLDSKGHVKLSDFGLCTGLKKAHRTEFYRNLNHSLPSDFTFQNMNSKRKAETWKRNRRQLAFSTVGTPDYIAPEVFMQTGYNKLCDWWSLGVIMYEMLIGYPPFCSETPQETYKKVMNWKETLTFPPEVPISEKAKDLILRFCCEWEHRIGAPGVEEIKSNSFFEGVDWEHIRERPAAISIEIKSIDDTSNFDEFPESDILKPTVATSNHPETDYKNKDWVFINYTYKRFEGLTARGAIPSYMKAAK
Eukaryotic peptide chain release factor GTP-binding subunit ERF3B, sequence (Q8IYD1 whole entry): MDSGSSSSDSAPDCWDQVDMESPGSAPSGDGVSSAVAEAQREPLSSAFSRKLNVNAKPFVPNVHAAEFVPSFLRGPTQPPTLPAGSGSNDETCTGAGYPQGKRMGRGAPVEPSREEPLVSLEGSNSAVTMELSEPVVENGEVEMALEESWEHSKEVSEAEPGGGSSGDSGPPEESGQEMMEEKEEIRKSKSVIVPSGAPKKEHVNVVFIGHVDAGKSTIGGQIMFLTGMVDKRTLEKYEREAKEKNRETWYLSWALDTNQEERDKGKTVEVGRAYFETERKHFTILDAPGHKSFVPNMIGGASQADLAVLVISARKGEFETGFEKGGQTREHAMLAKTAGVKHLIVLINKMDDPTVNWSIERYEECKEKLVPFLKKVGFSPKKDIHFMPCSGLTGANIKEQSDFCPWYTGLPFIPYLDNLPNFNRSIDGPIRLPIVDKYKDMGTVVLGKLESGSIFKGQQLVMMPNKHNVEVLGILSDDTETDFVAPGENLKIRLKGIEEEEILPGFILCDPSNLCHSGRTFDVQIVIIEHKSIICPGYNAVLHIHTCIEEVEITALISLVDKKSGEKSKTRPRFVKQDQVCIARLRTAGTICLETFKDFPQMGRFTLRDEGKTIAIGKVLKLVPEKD
ALK tyrosine kinase receptor, sequence (Q9UM73 whole entry): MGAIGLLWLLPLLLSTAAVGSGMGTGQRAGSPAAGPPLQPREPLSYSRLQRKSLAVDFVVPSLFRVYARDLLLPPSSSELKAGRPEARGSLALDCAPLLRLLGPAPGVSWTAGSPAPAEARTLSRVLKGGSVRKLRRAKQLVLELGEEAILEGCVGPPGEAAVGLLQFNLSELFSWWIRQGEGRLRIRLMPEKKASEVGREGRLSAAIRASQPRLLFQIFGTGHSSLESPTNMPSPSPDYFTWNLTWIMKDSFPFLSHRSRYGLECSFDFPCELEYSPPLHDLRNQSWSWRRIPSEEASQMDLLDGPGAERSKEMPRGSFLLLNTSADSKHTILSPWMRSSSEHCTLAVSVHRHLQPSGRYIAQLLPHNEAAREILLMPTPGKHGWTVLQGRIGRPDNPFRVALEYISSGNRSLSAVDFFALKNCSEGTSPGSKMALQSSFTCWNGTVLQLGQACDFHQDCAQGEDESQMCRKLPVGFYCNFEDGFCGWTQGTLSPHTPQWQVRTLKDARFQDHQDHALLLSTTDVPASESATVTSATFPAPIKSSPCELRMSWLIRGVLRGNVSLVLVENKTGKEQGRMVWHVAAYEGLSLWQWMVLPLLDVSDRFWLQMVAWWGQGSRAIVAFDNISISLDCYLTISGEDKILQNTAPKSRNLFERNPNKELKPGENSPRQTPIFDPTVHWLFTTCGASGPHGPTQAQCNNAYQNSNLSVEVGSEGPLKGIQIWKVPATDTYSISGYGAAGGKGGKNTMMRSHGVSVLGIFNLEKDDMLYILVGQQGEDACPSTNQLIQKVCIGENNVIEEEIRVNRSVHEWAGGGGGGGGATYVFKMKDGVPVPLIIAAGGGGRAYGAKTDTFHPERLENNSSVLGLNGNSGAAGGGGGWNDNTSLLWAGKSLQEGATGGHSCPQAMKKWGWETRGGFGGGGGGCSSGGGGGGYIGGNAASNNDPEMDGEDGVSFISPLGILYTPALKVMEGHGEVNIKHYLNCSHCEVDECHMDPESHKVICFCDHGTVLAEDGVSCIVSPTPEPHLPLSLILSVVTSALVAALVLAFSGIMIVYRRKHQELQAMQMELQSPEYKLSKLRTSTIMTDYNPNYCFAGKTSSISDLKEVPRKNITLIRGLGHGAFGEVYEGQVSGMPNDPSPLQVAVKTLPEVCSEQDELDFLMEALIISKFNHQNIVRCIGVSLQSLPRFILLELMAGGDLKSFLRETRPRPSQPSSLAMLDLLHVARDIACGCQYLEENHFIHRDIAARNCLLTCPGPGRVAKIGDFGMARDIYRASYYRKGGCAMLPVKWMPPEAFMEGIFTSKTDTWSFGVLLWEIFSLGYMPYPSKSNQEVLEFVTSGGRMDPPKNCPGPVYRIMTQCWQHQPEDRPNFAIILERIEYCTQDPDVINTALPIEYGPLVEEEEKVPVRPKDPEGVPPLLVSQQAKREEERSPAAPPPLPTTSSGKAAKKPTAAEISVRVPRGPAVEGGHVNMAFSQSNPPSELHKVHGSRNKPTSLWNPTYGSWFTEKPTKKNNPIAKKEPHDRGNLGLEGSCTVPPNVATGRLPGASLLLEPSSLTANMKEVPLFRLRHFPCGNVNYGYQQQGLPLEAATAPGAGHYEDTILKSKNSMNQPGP
Activin receptor type-1-like, sequence (P37023 whole entry): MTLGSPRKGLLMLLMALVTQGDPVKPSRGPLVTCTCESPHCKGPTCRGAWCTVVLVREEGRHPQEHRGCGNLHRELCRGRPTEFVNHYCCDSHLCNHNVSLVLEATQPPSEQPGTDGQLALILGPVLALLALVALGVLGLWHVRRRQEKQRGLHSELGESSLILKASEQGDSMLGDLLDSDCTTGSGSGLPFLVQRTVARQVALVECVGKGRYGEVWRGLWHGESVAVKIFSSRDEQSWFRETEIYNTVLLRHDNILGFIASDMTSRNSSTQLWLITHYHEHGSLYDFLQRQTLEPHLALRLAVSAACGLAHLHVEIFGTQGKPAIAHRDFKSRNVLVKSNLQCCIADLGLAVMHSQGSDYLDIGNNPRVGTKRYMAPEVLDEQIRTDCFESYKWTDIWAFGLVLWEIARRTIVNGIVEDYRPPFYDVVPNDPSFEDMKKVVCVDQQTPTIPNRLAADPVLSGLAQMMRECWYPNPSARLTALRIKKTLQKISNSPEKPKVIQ
MAP kinase-activated protein kinase 3, sequence (Q16644 whole entry): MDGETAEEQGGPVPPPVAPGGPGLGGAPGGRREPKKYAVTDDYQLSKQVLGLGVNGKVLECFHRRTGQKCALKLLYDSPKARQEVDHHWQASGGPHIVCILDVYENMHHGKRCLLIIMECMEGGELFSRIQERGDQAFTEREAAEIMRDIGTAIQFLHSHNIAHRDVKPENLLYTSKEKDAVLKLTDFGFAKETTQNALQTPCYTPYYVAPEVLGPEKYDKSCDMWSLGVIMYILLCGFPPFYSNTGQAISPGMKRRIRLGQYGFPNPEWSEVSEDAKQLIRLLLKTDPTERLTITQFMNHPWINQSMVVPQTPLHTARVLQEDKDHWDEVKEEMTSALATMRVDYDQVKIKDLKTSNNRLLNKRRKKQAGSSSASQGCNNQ
Dual specificity tyrosine-phosphorylation-regulated kinase 1B, sequence (Q9Y463 whole entry): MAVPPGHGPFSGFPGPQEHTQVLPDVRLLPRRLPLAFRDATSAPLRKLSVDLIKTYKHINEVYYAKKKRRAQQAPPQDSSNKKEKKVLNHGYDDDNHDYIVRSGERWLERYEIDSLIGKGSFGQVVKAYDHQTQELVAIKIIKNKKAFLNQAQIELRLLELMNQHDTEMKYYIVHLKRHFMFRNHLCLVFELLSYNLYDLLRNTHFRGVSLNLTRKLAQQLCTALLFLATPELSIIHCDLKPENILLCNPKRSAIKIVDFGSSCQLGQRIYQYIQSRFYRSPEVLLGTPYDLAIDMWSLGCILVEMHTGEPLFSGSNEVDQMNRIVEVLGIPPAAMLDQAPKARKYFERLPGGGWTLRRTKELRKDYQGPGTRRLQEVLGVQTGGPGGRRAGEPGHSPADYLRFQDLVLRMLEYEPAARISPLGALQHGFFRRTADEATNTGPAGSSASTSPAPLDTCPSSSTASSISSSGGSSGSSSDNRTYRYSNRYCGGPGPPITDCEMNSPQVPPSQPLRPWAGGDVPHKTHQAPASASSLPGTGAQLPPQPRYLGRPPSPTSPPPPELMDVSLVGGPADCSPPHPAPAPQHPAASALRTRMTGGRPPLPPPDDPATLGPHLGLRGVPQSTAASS
Cyclin-dependent kinase 10, sequence (Q15131 whole entry): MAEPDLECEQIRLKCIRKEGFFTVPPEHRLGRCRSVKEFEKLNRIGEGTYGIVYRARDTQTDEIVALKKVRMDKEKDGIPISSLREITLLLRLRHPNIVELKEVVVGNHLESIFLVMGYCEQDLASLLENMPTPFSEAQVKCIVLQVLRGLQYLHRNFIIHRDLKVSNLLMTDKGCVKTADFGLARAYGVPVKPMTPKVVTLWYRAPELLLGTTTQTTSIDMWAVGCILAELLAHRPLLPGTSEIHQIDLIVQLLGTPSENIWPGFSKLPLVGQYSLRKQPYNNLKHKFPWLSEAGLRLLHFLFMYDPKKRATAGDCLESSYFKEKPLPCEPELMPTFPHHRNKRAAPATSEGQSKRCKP
Nucleoside diphosphate kinase B, sequence (P22392 whole entry): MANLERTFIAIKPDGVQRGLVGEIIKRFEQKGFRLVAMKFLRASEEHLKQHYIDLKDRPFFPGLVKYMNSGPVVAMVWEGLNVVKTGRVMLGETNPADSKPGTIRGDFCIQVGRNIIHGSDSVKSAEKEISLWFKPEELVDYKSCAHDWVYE

SMILES: C[C@H]1CNCCCN1S(=O)(=O)c1cccc2cncc(F)c12
- Kd [1]: > 30 µM (inactive)

SMILES: CC(=O)c1cnc2ccc(-c3cc(Cl)c(O)c(Cl)c3)nc2c1N[C@H]1CC[C@H](CN(C)C)CC1
- Kd [2]: > 30 µM (inactive)
- Kd [1]: > 30 µM (inactive)

SMILES: CCNC(=O)C#Cc1ccc2c(c1)NC(=O)/C2=C(\Nc1ccc(CN(C)C)cc1)c1ccccc1
- Kd [3]: > 30 µM (inactive)

SMILES: C=CC(=O)N1CCC[C@H](n2c(=O)n(-c3ccc(Oc4ccccc4)cc3)c3c(N)ncnc32)C1
- Kd [4]: > 30 µM (inactive)

SMILES: Cc1nc2cc(-c3nn(C(C)C)c4ncnc(N)c34)ccc2o1
- Kd [5]: > 30 µM (inactive)
- Kd [1]: > 30 µM (inactive)
- Kd [4]: > 30 µM (inactive)
- Kd [6]: > 30 µM (inactive)

SMILES: COCc1c(-c2ccc(NC(=O)Nc3cc(C(F)(F)F)ccc3F)c(F)c2)c2c(N)ncnn2c1CN1CCOCC1
- Kd [2]: > 30 µM (inactive)
- Kd [3]: > 30 µM (inactive)

SMILES: Nc1ncnc2c1c(-c1cccc(OCc3ccccc3)c1)cn2[C@H]1C[C@@H](CN2CCC2)C1 [AEW-541]
- Kd [2]: > 30 µM (inactive)
- Kd [4]: > 30 µM (inactive)

SMILES: Cc1csc(-c2nnc(Nc3ccc(Oc4ncccc4-c4ccnc(N)n4)cc3)c3ccccc23)c1 [AMG-900]
- Kd [7]: > 30 µM (inactive)
- Kd [3]: > 30 µM (inactive)
- Kd [4]: > 30 µM (inactive)
- Kd [6]: > 30 µM (inactive)

SMILES: O=C(Nc1c[nH]nc1-c1nc2cc(CN3CCOCC3)ccc2[nH]1)NC1CC1 [AT-9283]
- Kd [2]: > 30 µM (inactive)
- Kd [8]: 0.009 µM
- Kd [7]: 0.015 µM (active)
- Kd [3]: > 30 µM (inactive)

SMILES: C=CC(=O)Nc1cc2c(Nc3ccc(F)c(Cl)c3)ncnc2cc1C#CC(C)(C)N1CCN(C)CC1 [AV-412 FREE BASE]
- Kd [9]: > 30 µM (inactive)
- Kd [4]: > 30 µM (inactive)

SMILES: CNC(=O)c1ccccc1Sc1ccc2c(/C=C/c3ccccn3)n[nH]c2c1 [AXITINIB]
- Kd [1]: > 30 µM (inactive)

SMILES: COc1cc([C@@H]2c3cc4c(cc3[C@H](O)[C@H]3COC(=O)[C@@H]23)OCO4)cc(OC)c1OC [AXL-1717]
- Kd [8]: > 30 µM (inactive)
- Kd [3]: > 30 µM (inactive)

SMILES: Cc1cc(C(=O)NOCCO)c(Nc2ccc(I)cc2F)n(C)c1=O [AZD-8330]
- Kd [5]: > 30 µM (inactive)
- Kd [7]: > 30 µM (inactive)
- Kd [6]: > 30 µM (inactive)

SMILES: Cn1cnc2c(F)c(Nc3ccc(Br)cc3F)c(C(=O)NOCCO)cc21 [BINIMETINIB]
- Kd [8]: > 30 µM (inactive)
- Kd [5]: > 30 µM (inactive)
- Kd [7]: > 30 µM (inactive)
- Kd [4]: > 30 µM (inactive)

SMILES: CCn1c(C(=O)N(C2CC2)C2CC2)cc2c3c(ncn3C)c(Nc3cc(C)n(C)n3)nc21 [BMS-911543]
- Kd [2]: > 30 µM (inactive)
- Kd [7]: > 30 µM (inactive)
- Kd [1]: > 30 µM (inactive)
- Kd [4]: > 30 µM (inactive)
- Kd [6]: > 30 µM (inactive)

SMILES: COc1cc2ncnc(Oc3cccc(NC(=O)Nc4cc(C(C)(C)C(F)(F)F)on4)c3)c2cc1OC [CEP-32496]
- Kd [8]: > 30 µM (inactive)
- Kd [3]: > 30 µM (inactive)
- Kd [4]: > 30 µM (inactive)

SMILES: Cc1cc(Nc2ncc(Cl)c(Nc3ccccc3S(=O)(=O)C(C)C)n2)c(OC(C)C)cc1C1CCNCC1 [CERITINIB]
- Kd [9]: > 30 µM (inactive)
- Kd [3]: > 30 µM (inactive)
- Kd [4]: > 30 µM (inactive)

SMILES: COCC(=O)NC/C=C/c1ccc2ncnc(Nc3ccc(Oc4ccc(C)nc4)c(C)c3)c2c1 [CP-724714]
- Kd [2]: > 30 µM (inactive)
- Kd [4]: > 30 µM (inactive)

SMILES: C#Cc1cccc(Nc2ncnc3cc(OC)c(OCCCCCCC(=O)NO)cc23)c1 [CUDC-101]
- Kd [10]: 0.142 µM (active)
- Kd [5]: > 30 µM (inactive)
- Kd [7]: > 30 µM (inactive)
- Kd [4]: > 30 µM (inactive)
- Kd [6]: > 30 µM (inactive)

SMILES: CCS(=O)(=O)N1CCN(c2ccc(Nc3ncc(C(N)=O)c(NC4CC4)n3)cc2)CC1 [Cerdulatinib Hydrochloride]
- Kd [4]: > 30 µM (inactive)

SMILES: CC(C)(C)c1nc(-c2cccc(NS(=O)(=O)c3c(F)cccc3F)c2F)c(-c2ccnc(N)n2)s1 [DABRAFENIB]
- Kd [8]: > 30 µM (inactive)
- Kd [5]: 1.55 µM (active)
- Kd [9]: > 30 µM (inactive)
- Kd [1]: > 30 µM (inactive)
- Kd [4]: > 30 µM (inactive)

SMILES: Cn1cc(C2=C(c3cn(C4CCN(Cc5ccccn5)CC4)c4ccccc34)C(=O)NC2=O)c2ccccc21 [ENZASTAURIN]
- Kd [4]: > 30 µM (inactive)

SMILES: Cc1nc2cc(-n3ncc(C(=O)c4cc5ccccc5[nH]4)c3N)ccc2[nH]1 [FGFR INHIBITOR DEBIO 1347]
- Kd [5]: > 30 µM (inactive)

SMILES: Cc1cccc(-c2nn3c(c2-c2ccnc4ccc(C(N)=O)cc24)CCC3)n1 [GALUNISERTIB]
- Kd [2]: > 30 µM (inactive)
- Kd [9]: > 30 µM (inactive)
- Kd [1]: > 30 µM (inactive)

SMILES: C[C@@H](Oc1cc(-n2cnc3ccc(CN4CCN(C)CC4)cc32)sc1C(N)=O)c1ccccc1C(F)(F)F [GSK-461364]
- Kd [4]: > 30 µM (inactive)

SMILES: CCn1cc(-c2ccnc3[nH]c(-c4cccc(CN(C)C)c4)cc23)c(-c2ccc(NC(=O)N(C)C)cc2)n1 [GSK-1070916]
- Kd [5]: > 30 µM (inactive)
- Kd [9]: > 30 µM (inactive)
- Kd [3]: > 30 µM (inactive)
- Kd [6]: > 30 µM (inactive)

SMILES: COc1ccc(S(=O)(=O)N(C(C)=O)c2ccccc2/C=C/c2cc[n+]([O-])cc2)cc1 [HMN-214]
- Kd [5]: > 30 µM (inactive)

SMILES: CNC(=O)c1nn(C)c2c1C(C)(C)Cc1cnc(Nc3ccc(N4CCN(C)CC4)cc3)nc1-2 [MILCICLIB]
- Kd [10]: > 30 µM (inactive)

SMILES: NC1(c2ccc(-c3nc4ccn5c(=O)[nH]nc5c4cc3-c3ccccc3)cc2)CCC1 [MK-2206]
- Kd [9]: > 30 µM (inactive)
- Kd [4]: > 30 µM (inactive)

SMILES: CN(C[C@@H]1COCCO1)S(=O)(=O)Nc1ccc2ccc3ncc(-c4cnn(C)c4)cc3c(=O)c2c1 [MK-2461]
- Kd [2]: > 30 µM (inactive)
- Kd [3]: > 30 µM (inactive)
- Kd [11]: > 30 µM (inactive)

SMILES: Cn1cc(-c2cnc3ccc4ccc(CS(=O)(=O)NCc5ccccn5)cc4c(=O)c3c2)cn1 [MK-8033]
- Kd [7]: > 30 µM (inactive)
- Kd [9]: > 30 µM (inactive)
- Kd [1]: > 30 µM (inactive)
- Kd [6]: > 30 µM (inactive)

SMILES: FC(F)(F)c1ccc(/C=C/c2nc(COc3ccc(CCCCn4ccnn4)cc3)co2)cc1 [MUBRITINIB]
- Kd [10]: > 30 µM (inactive)
- Kd [8]: > 30 µM (inactive)

SMILES: Cc1[nH]c(/C=C2\C(=O)Nc3ccccc32)c(C)c1CCC(=O)O [ORANTINIB]
- Kd [8]: > 30 µM (inactive)
- Kd [5]: > 30 µM (inactive)

SMILES: NC(=O)c1c(OCc2c(F)cc(Br)cc2F)nsc1NC(=O)NCCCCN1CCCC1 [OSI-632]
- Kd [5]: > 30 µM (inactive)
- Kd [3]: > 30 µM (inactive)

SMILES: CCOc1cc2ncc(C#N)c(Nc3ccc(F)c(Cl)c3)c2cc1NC(=O)/C=C/CN(C)C [PELITINIB]
- Kd [8]: > 30 µM (inactive)
- Kd [3]: > 30 µM (inactive)
- Kd [4]: > 30 µM (inactive)

SMILES: Cc1cnc(NC(=O)Nc2cc(Br)c(C)cc2OC[C@@H]2CNCCO2)cn1 [RABUSERTIB]
- Kd [8]: > 30 µM (inactive)
- Kd [1]: > 30 µM (inactive)
- Kd [4]: > 30 µM (inactive)
- Kd [6]: > 30 µM (inactive)

SMILES: CNC(=O)c1cc(Oc2ccc(NC(=O)Nc3cc(C(C)(C)C)nn3-c3ccc4ncccc4c3)c(F)c2)ccn1 [REBASTINIB]
- Kd [4]: > 30 µM (inactive)
- Kd [6]: 4.46 µM (active)

SMILES: CO[C@H]1C[C@@H]2CC[C@@H](C)[C@@](O)(O2)C(=O)C(=O)N2CCCC[C@H]2C(=O)O[C@H]([C@H](C)C[C@@H]2CC[C@@H](OP(C)(C)=O)[C@H](OC)C2)CC(=O)[C@H](C)/C=C(\C)[C@@H](O)[C@@H](OC)C(=O)[C@H](C)C[C@H](C)/C=C/C=C/C=C/1C [RIDAFOROLIMUS]
- Kd [12]: > 30 µM (inactive)
- Kd [8]: > 30 µM (inactive)
- Kd [9]: 1.26 µM
- Kd [1]: > 30 µM (inactive)
- Kd [6]: > 30 µM (inactive)

SMILES: N#CC1(c2ccc(NC(=O)c3cccnc3NCc3ccncc3)cc2)CCCC1 [RIVOCERANIB]
- Kd [9]: > 30 µM (inactive)
- Kd [6]: > 30 µM (inactive)

SMILES: O=C(NOCCO)c1cc(CN2OCCCC2=O)c(F)c(F)c1Nc1ccc(I)cc1F [RO-4987655]
- Kd [4]: > 30 µM (inactive)

SMILES: N#CC[C@H](C1CCCC1)n1cc(-c2ncnc3[nH]ccc23)cn1 [RUXOLITINIB]
- Kd [1]: > 30 µM (inactive)

SMILES: O=c1[nH]ccc2cc(OC3CCNCC3)ccc12 [SAR-407899 FREE BASE]
- Kd [13]: > 30 µM (inactive)
- Kd [1]: > 30 µM (inactive)
- Kd [3]: > 30 µM (inactive)

SMILES: CN1CCN(CCOc2cc(OC3CCOCC3)c3c(Nc4c(Cl)ccc5c4OCO5)ncnc3c2)CC1 [SARACATINIB]
- Kd [10]: > 30 µM (inactive)
- Kd [8]: > 30 µM (inactive)
- Kd [6]: > 30 µM (inactive)

SMILES: Cn1cc(-c2cnn3c(N)c(Br)c([C@@H]4CCCNC4)nc23)cn1 [SCH-900776]
- Kd [5]: > 30 µM (inactive)
- Kd [3]: > 30 µM (inactive)

SMILES: COc1cc2c(Nc3ccc(Cl)c(Cl)c3F)ncnc2cc1OC[C@@H]1C[C@@H]2CN(C)C[C@@H]2C1 [TESEVATINIB]
- Kd [4]: 0.002 µM

SMILES: O=C(Cc1ccc(-c2ccc(OCCN3CCOCC3)cc2)cn1)NCc1ccccc1 [TIRBANIBULIN]
- Kd [5]: > 30 µM (inactive)
- Kd [7]: > 30 µM (inactive)
- Kd [9]: > 30 µM (inactive)
- Kd [1]: > 30 µM (inactive)
- Kd [3]: > 30 µM (inactive)
- Kd [6]: > 30 µM (inactive)

SMILES: O=C1NC(=O)[C@@H](c2cn3c4c(cccc24)CCC3)[C@@H]1c1c[nH]c2ccccc12 [TIVANTINIB]
- Kd [4]: > 30 µM (inactive)

SMILES: C[C@@H](NC(=O)c1ncnc(N)c1Cl)c1ncc(C(=O)Nc2cc(C(F)(F)F)c(Cl)cn2)s1 [TOVORAFENIB]
- Kd [8]: > 30 µM (inactive)
- Kd [9]: > 30 µM (inactive)

SMILES: Cn1ncc(Cl)c1-c1cc(C(=O)N[C@H](CN)Cc2ccc(F)c(F)c2)oc1Cl [UPROSERTIB]
- Kd [3]: > 30 µM (inactive)

SMILES: C[C@@H](N)c1ccc(C(=O)Nc2ccnc3[nH]ccc23)cc1 [Y-39983]
- Kd [13]: > 30 µM (inactive)
- Kd [3]: > 30 µM (inactive)
- Kd [4]: > 30 µM (inactive)
